In patent publication US10597367B2, “Metabotropic glutamate receptor negative allosteric modulators (NAMs) and uses thereof” (Sanford Burnham Prebys Medical Discovery Institute, priority 2014, dated 2020):

Columns and labels:
[1] = Microsomal stability in vitro assay; type: in vitro ADME; conditions: pooled rat liver microsomes, 4 μM compound, NADPH
Method: Pooled rat liver microsomes (BD Biosciences, #452701) were preincubated with test compounds at 37.5° C. for 5 min in the absence of NADPH. The reaction was initiated by addition of NADPH and incubated under the same conditions. The final incubation concentrations were 4 μM test compound, 2 mM NADPH, and 1 mg/mL (total protein) liver microsomes in phosphate-buffered saline (PBS) at pH 7.4. One aliquot (100 μL) of the incubation mixture was withdrawn at 15 min time points and combined immediately with 100 μL of ACN/MeOH. After mixing, the sample was centrifuged at approximately 13000 rpm for 12 min. The supernatant was filtered and transferred into an autosampler vial and the amount of test compound was quantified using a Shimadzu LCMS 2010EV mass spectrometer. The change of the AUC (area under the curve) of the parent compound as a function of time was used as a measure of microsomal stability. Test compounds were run in duplicate with a positive control.

[2] = Plasma stability in vitro assay; type: in vitro ADME; conditions: heparinized rat plasma, 100 μM, 37.5° C.
Method: A 20 μL aliquot of a 10 mM solution in DMSO of the test compound was added to 2.0 mL of heparinized rat plasma (Lampire, P1-150N) to obtain a 100 μM final solution. The mixture was incubated for 1 h at 37.5° C. Aliquots of 100 μL were taken at 15 min intervals and diluted with 100 μL of MeOH/ACN. After mixing, the sample was centrifuged at approximately 13000 rpm for 12 min. The supernatant was filtered and transferred into an autosampler vial and the amount of test compound was quantified using the Shimadzu LCMS-2010EV system. The change of the AUC of the parent compound in function of time was used as a measure of plasma stability.

mGlu2 receptor = mGlu2 receptor (Rattus norvegicus (Rat), UniProt P31421); test: mGlu2 in vitro GIRK thallium flux assay; type: cell-based; conditions: read-out: mGlu2 EC50 (μM) (60 min); NAM; test compound incubated 60 min before EC80 glutamate; HEK-293 GIRK cells
Method: All cell culture reagents were purchased from Invitrogen Corp. (Carlsbad, Calif.) unless otherwise noted. Compound activity at the group II (mGlu2 and mGlu3) mGlus was assessed using thallium flux through GIRK channels. Briefly, cells were plated into 384-well, black-walled, clear-bottomed poly-D-lysine-coated plates at a density of 15,000 cells/20 μL/well in DMEM containing 10% dialyzed FBS, 20 mM HEPES, and 100 units/mL penicillin/streptomycin (assay media). Plated cells were incubated overnight at 37° C. in the presence of 5% CO2. […] Cells were incubated for 1 h at room temperature, and the dye exchanged to assay buffer using an ELX405, leaving 20 μL/well. Test compounds were diluted to 2 times their final desired concentration in assay buffer (0.3% DMSO final concentration). […] Cell plates and compound plates were loaded onto a kinetic imaging plate reader (FDSS 6000 or 7000; Hamamatsu Corporation, Bridgewater, N.J.). Appropriate baseline readings were taken (10 images at 1 Hz; excitation, 470±20 nm; emission, 540±30 nm) and test compounds were added in a 20 μL volume and incubated for either 2.5 min or 60 min as indicated before the addition of 10 μL of thallium buffer with or without agonist. After the addition of agonist, data were collected for approximately an additional 2.5 min. Data were analyzed using Excel (Microsoft Corp, Redmond, Wash.). The slope of the fluorescence increase beginning 5 s after thallium/agonist addition and ending 15 s after thallium/agonist addition was calculated, corrected to vehicle and maximal agonist control slope values, and plotted in using either XLfit (ID Business Solutions Ltd) or Prism software (GraphPad Software, San Diego, Calif.) to generate concentration-response curves. Potencies were calculated from fits using a four-point parameter logistic equation. For concentration-response curve experiments, compounds were serially diluted 1:3 into 10 point concentration response curves and were transferred to daughter plates using an Echo acoustic plate reformatter (Labcyte, Sunnyvale, Calif.). Test compounds were applied and followed by EC80 concentrations of glutamate.

Male Wistar rats = test: Forced Swim Test (FST); type: in vivo; conditions: rat, FIG. 1
Method: Male Wistar rats (Charles River, Hollister, Calif.), weighing 175-225 g (Charles River, Portage, Ind.) used for the forced swim test study were housed in pairs with food and water available ad libitum, except during testing, in a temperature and humidity controlled vivarium (21° C.). Rats were maintained on a 12-hour reverse light-dark cycle with lights on at 6 pm. All experimental procedures occurred during the dark cycle, were approved by the Institutional Animal Care and Use Committee of the Scripps Research Institute, and were in accordance with the Association for the Assessment and Accreditation of Laboratory Animal Care (AAALAC) guidelines. […]
After the habituation swim and 24 hours prior to the test swim, rats were administered one of three doses of a mGlu2/3 NAM, with doses and pretreatment time based on maximal brain penetration as determined by PK studies for each compound. Blood and brain tissue were collected immediately after the FST and the PK properties of each compound were analyzed together with FST behavior. […] Twenty-four hours after their first exposure, the animals were again placed in the swim apparatus for 5 min, and behaviors were monitored from above by video camera for subsequent analysis. The rater of the behavioral patterns was blind with respect to the experimental conditions being scored. […]

Chain of mGlu2 receptor (P31421 19-872): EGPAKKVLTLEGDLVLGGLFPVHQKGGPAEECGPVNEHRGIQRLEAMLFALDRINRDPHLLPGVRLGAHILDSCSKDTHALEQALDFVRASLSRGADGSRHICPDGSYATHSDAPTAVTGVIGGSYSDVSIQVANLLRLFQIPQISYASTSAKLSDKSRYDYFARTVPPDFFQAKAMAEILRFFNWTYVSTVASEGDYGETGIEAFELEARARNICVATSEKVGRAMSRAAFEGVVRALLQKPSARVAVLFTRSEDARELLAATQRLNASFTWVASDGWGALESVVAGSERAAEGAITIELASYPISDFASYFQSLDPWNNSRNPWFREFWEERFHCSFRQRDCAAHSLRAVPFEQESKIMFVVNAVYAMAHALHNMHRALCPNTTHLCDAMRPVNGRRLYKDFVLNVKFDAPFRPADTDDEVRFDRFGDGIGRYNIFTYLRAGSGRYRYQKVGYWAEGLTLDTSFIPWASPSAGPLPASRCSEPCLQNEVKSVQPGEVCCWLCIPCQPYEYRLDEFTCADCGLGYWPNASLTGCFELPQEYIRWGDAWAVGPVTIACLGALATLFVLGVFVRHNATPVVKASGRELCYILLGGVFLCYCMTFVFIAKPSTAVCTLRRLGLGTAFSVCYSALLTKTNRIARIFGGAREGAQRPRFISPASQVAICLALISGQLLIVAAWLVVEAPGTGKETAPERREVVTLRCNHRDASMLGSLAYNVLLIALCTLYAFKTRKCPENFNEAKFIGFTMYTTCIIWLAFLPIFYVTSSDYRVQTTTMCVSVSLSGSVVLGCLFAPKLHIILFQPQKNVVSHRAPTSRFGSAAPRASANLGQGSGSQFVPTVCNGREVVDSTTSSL

With `N#Cc1cc(C2=Nc3ccc(C(F)(F)F)cc3NC(=O)C2)ccn1` [Example 184, 4-(2-Oxo-8-(trifluoromethyl)-2,3-dihydro-1H-benzo[b][1,4]diazepin-4-yl)picolinonitrile] the “Microsomal Stability, Percent Remaining @ 1 hour” value [1] was 97% and the “Plasma Stability, Percent Remaining @ 1 hour” value [2] was 100%.
In the case of `O=C1CC(c2cccc(-c3cccnc3)c2)=Nc2ccc(Br)cc2N1` [Example 179, 8-Bromo-4-(3-(pyridin-3-yl)phenyl)-1,3-dihydro-2H-benzo[b][1,4]diazepin-2-one], the “Microsomal Stability, Percent Remaining @ 1 hour” value [1] is reported as 30% and the “Plasma Stability, Percent Remaining @ 1 hour” value [2] is reported as 100%.
With `O=C(O)c1cc(-c2cccc(-c3nsc(-c4ccccc4)n3)c2)ccc1F` [Example 38, 4-Fluoro-3′-(5-phenyl-1,2,4-thiadiazol-3-yl)biphenyl-3-carboxylic Acid] the “Microsomal Stability, Percent Remaining @ 1 hour” value [1] was 2% and the “Plasma Stability, Percent Remaining @ 1 hour” value [2] was 65%.
In the case of `Cc1cc2c(cc1C(F)(F)F)NC(=O)CC(c1cccc(Oc3cccc(Br)c3)c1)N2` (single isomer, unassigned) [Example 173B, 4-(3-(3-Bromophenoxy)phenyl)-7-methyl-8-(trifluoromethyl)-4,5-dihydro-1H-benzo[b][1,4]diazepin-2(3H)-one], the EC50 (mGlu2 receptor) is reported as > 10 µM.
In the case of `O=C(O)c1cc(F)cc(-c2cccc(-c3csc(-c4ccccc4)n3)c2)c1` [Example 9, 5-Fluoro-3′-(2-phenylthiazol-4-yl)biphenyl-3-carboxylic Acid], the “Microsomal Stability, Percent Remaining @ 1 hour” value [1] is reported as 4% and the “Plasma Stability, Percent Remaining @ 1 hour” value [2] is reported as 98%.
In the case of `COc1ccc(-c2cc(C(F)(F)F)nc(-c3cccc(-c4ccc(F)c(C(=O)O)c4)c3)n2)cc1` [Example 87, 4-Fluoro-3′-(4-(4-methoxyphenyl)-6-(trifluoromethyl)pyrimidin-2-yl)biphenyl-3-carboxylic Acid], the “Microsomal Stability, Percent Remaining @ 1 hour” value [1] is reported as 92% and the “Plasma Stability, Percent Remaining @ 1 hour” value [2] is reported as 97%.
For `O=C1CC(c2ccnc(Br)c2)=Nc2ccc(C(F)(F)F)cc2N1` [Example 191, 4-(2-Bromopyridin-4-yl)-8-(trifluoromethyl)-1,3-dihydro-2H-benzo[b][1,4]diazepin-2-one], the “antidepressant activity in the Forced Swim Test (immobility, swimming)” value (Male Wistar rats) was “antidepressant activity by decreasing immobility and increasing swimming”.
For `O=C(O)c1ccc(F)c(-c2cccc(-c3nc(-c4ccc(C(F)(F)F)nc4)cc(C(F)(F)F)n3)c2)c1` [Example 79, 6-Fluoro-3′-(4-(trifluoromethyl)-6-(6-(trifluoromethyl)pyridin-3-yl)pyrimidin-2-yl)biphenyl-3-carboxylic Acid], the “Microsomal Stability, Percent Remaining @ 1 hour” value [1] was 82% and the “Plasma Stability, Percent Remaining @ 1 hour” value [2] was 86%.
For `Cc1cc2c(cc1C(F)(F)F)NC(=O)CC(c1cccc(S(=O)(=O)c3ncccn3)c1)=N2` [Example 137, 7-Methyl-4-(3-(pyrimidin-2-ylsulfonyl)phenyl)-8-(trifluoromethyl)-1H-benzo[b][1,4]diazepin-2(3H)-one], the “Microsomal Stability, Percent Remaining @ 1 hour” value [1] was 68% and the “Plasma Stability, Percent Remaining @ 1 hour” value [2] was 66%.
For `O=C(O)c1cc(-c2cccc(-c3nc(-c4ccccc4)cc(C(F)(F)F)n3)c2)ccc1F` [Example 86, 4-Fluoro-3′-(4-phenyl-6-(trifluoromethyl)pyrimidin-2-yl)biphenyl-3-carboxylic Acid], the “Microsomal Stability, Percent Remaining @ 1 hour” value [1] was 100% and the “Plasma Stability, Percent Remaining @ 1 hour” value [2] was 100%.
In the case of `O=C(O)c1cc(-c2cccc(-c3nc(-c4ccsc4)cc(C(F)(F)F)n3)c2)ccc1F` [Example 122, 4-Fluoro-3′-(4-(thiophen-3-yl)-6-(trifluoromethyl)pyrimidin-2-yl)-[1,1′-biphenyl]-3-carboxylic Acid], the “Microsomal Stability, Percent Remaining @ 1 hour” value [1] is reported as 83% and the “Plasma Stability, Percent Remaining @ 1 hour” value [2] is reported as 83%.
With `O=C(O)c1cc(F)cc(-c2cccc(-c3nc(-c4ccco4)cc(C(F)(F)F)n3)c2)c1` [Example 89, 5-Fluoro-3′-(4-(furan-2-yl)-6-(trifluoromethyl)pyrimidin-2-yl)biphenyl-3-carboxylic Acid] the “Microsomal Stability, Percent Remaining @ 1 hour” value [1] was 82% and the “Plasma Stability, Percent Remaining @ 1 hour” value [2] was 100%.
For `O=C(O)c1cc(F)cc(-c2cccc(-c3nc(-c4ccc(C(F)(F)F)nc4)cc(C(F)(F)F)n3)c2)c1` [Example 76, 5-Fluoro-3′-(4-(trifluoromethyl)-6-(6-(trifluoromethyl)pyridin-3-yl)pyrimidin-2-yl)biphenyl-3-carboxylic Acid], the “Microsomal Stability, Percent Remaining @ 1 hour” value [1] was 95% and the “Plasma Stability, Percent Remaining @ 1 hour” value [2] was 100%.
With `Cc1cc2c(cc1C(F)(F)F)NC(=O)CC(c1cccc(Sc3ncccn3)c1)=N2` [Example 136, 7-Methyl-4-(3-(pyrimidin-2-ylthio)phenyl)-8-(trifluoromethyl)-1H-benzo[b][1,4]diazepin-2(3H)-one] the “Microsomal Stability, Percent Remaining @ 1 hour” value [1] was 90% and the “Plasma Stability, Percent Remaining @ 1 hour” value [2] was 99%.
For `Cc1cc2c(cc1C(F)(F)F)NC(=O)CC(c1cccc(Oc3cccc(C(F)(F)F)c3)c1)N2` (single isomer, unassigned) [Example 172B, 7-Methyl-8-(trifluoromethyl)-4-(3-(3-(trifluoromethyl)phenoxy)phenyl)-4,5-dihydro-1H-benzo[b][1,4]diazepin-2(3H)-one], the EC50 (mGlu2 receptor) was > 10 µM.
With `O=C(O)c1cc(-c2cccc(-c3csc(-c4ccccc4)n3)c2)ccc1F` [Example 1, 4-Fluoro-3′-(2-phenylthiazol-4-yl)biphenyl-3-carboxylic Acid] the “Microsomal Stability, Percent Remaining @ 1 hour” value [1] was 3% and the “Plasma Stability, Percent Remaining @ 1 hour” value [2] was 93%.
For `O=C(O)c1ccc(F)c(-c2cccc(-c3nc(-c4ccoc4)cc(C(F)(F)F)n3)c2)c1` [Example 114, 6-Fluoro-3′-(4-(furan-3-yl)-6-(trifluoromethyl)pyrimidin-2-yl)biphenyl-3-carboxylic Acid], the “Microsomal Stability, Percent Remaining @ 1 hour” value [1] was 66% and the “Plasma Stability, Percent Remaining @ 1 hour” value [2] was 93%.
In the case of `O=C(O)c1cc(F)cc(-c2cccc(-c3nsc(-c4ccoc4)n3)c2)c1` [Example 43, 5-Fluoro-3′-(5-(furan-3-yl)-1,2,4-thiadiazol-3-yl)biphenyl-3-carboxylic Acid], the “Microsomal Stability, Percent Remaining @ 1 hour” value [1] is reported as 66% and the “Plasma Stability, Percent Remaining @ 1 hour” value [2] is reported as 95%.
